On the set-up of series [1]: method as in earlier work. The following applies: liver metabolites of EMHPS; cited from earlier work.
For a further series, the target named is T1, SLCO1B1 (Homo sapiens, UniProt Q9Y6L6).
T1 sequence (Q9Y6L6 1-691): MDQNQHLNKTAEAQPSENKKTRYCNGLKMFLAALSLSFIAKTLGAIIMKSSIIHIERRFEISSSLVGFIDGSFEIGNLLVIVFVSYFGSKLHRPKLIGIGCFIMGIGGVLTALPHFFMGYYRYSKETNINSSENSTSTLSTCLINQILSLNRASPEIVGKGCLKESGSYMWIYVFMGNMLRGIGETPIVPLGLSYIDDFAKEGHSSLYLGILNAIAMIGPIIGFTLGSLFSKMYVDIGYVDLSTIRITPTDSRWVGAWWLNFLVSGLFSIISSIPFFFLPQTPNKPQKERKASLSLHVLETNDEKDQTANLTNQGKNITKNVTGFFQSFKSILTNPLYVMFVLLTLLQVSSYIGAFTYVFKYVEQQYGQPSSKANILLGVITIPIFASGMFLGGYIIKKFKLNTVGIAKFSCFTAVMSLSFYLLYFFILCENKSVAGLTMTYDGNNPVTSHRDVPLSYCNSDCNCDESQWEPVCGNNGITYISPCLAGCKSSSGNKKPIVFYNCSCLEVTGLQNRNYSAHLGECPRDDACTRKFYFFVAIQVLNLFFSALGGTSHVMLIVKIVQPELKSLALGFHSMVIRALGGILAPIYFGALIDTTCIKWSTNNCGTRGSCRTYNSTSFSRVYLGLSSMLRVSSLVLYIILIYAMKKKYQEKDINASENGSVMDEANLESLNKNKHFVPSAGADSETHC
The experiment in a line: Inhibition of SLCO1B1-mediated uptake of atorvastatin in HEK293-SLCO1B1 cells. Format: in vitro ADME. The arrangement: The SLCO1B1 gene was obtained via synthesis and was cloned into the pEGFP-N1 vector; expressed in transfected cells; host or cells: HEK293. Here is the method: As a positive inhibition control, rifampicin at similar concentrations was used. Three independent experiments were performed. […] Proteins were precipitated by adding acetonitrile in a 1:1 ratio to the sample. […] The mobile phase gradient program was as follows: 0-0.6 min-35% A and 65% B, 0.6-5.0 min-5% A and 95% B, 5.0-8.0 min-35% A and 65% B. The flow rate and the column temperature were maintained at 300 μL/min and 35 °C. Aliquots (2 μL) of the extracted samples were injected.

The target of the next series is ABCB1 (Homo sapiens, UniProt P08183). The experiment in a line: Effect on ABCB1-mediated transport of fexofenadine through the Caco-2 cells monolayer. The following applies: all tested concentrations (1–200 µM), Caco-2 monolayer. The protocol:
Transport experiments were carried out in Transwell® systems (12 mm Transwell® with 0.4 µm Pore Polycarbonate Membrane Insert, Sterile, «Corning»). The Transwell® system consists of two chambers, apical and basolateral. […] The medium was changed every 2–3 days. The apical and basolateral chambers represent the luminal and blood/mesenteric lymph sides of the gastrointestinal tract, respectively.
The transepithelial electrical resistance (TEER) across the cell monolayers was monitored using a Millicell-ERS (electrical resistance system) to assess cell monolayer integrity. For transport studies, only monolayers with a TEER > 500 Ω cm^2 were used.
To study the roles of different parts of the EMHPS molecule for its action on ABCB1, experiments with succinic acid were also carried out.
Prior to the transport experiments, the culture media was aspirated, and the monolayers were washed twice with transport medium and preincubated with EMHPS, succinic acid, or verapamil for 30 min.
The data are presented as the mean ± SD from three monolayers.
The resulting sample of the transport medium (50 μL) was diluted in 150 μL of the mobile phase, and 100 μL of the resulting solution was injected into the chromatograph. A Phenomenex Synergi 4u Polar-RP 80A (250 × 4.6) chromatographic column was used for analysis. The separation temperature was 35 °C; the flow rate was 1 mL/min. Composition of the mobile phase: acetonitrile (128 mL), deionized water (267.4 mL), acetic acid (6.33 mL), triethylamine to pH = 6.7. […] Detection was carried out at a wavelength of 220 nm.
Half maximal inhibitory concentration (IC50) values were determined through nonlinear regression based on the three-parameter logistic function.
(Caco-2 monolayers are a common model of the intestinal barrier.)

Where [2] appears, read: human, HEK293-SLCO1B1 cells, pH 7.4, probe atorvastatin 1 µM.

Each structure is given as a SMILES string.

What is called IC50 is the point on the concentration scale where inhibition reaches its midpoint. One may read the inhibition as how much of the control response was suppressed. Higher therefore signals strong suppression.

Sequence of ABCB1 (P08183 whole entry): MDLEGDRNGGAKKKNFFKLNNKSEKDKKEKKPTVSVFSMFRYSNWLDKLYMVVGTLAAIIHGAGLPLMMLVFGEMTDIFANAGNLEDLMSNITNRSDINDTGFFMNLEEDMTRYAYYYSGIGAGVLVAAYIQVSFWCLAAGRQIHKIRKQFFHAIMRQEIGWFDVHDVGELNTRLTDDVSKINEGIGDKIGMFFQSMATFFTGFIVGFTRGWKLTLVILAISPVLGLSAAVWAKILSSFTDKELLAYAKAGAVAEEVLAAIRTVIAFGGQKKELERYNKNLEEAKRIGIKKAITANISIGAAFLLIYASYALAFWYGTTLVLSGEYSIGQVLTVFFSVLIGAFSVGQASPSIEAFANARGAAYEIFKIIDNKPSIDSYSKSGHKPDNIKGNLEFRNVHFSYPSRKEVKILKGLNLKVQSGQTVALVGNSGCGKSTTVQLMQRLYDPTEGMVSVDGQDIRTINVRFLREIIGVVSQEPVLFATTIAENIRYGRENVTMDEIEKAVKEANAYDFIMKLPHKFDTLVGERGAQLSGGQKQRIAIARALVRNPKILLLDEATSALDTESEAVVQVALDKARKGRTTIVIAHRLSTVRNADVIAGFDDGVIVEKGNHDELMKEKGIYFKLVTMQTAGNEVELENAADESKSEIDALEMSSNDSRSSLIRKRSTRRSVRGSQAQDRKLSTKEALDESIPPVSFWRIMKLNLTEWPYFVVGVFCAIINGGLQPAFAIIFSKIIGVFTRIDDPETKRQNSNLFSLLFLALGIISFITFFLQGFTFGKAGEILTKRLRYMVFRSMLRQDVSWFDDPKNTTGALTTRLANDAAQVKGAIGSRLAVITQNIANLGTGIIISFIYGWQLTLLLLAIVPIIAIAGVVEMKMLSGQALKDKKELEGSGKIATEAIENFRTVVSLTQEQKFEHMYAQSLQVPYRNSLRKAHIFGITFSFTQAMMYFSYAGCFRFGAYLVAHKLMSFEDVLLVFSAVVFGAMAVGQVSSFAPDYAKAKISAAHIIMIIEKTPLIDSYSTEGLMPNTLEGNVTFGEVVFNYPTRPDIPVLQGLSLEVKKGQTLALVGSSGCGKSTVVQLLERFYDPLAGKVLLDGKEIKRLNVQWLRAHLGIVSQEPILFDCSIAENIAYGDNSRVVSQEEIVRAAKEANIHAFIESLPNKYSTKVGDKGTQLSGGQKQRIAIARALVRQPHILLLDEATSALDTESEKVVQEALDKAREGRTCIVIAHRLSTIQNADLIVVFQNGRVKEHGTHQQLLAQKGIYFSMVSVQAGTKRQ

Regarding `CCc1nc(C)ccc1O[C@@H]1O[C@H](C(=O)O)[C@@H](O)[C@H](O)[C@H]1O` [2-ethyl-6-methyl-3-hydroxypyridine glucuronide], the pharmacological activity entry in series [1] was “no pharmacological activity”.
Turning to `CCc1nc(C)ccc1O.O=P(O)(O)O` [2-ethyl-6-methyl-3-hydroxypyridine phosphate], the pharmacological activity result in series [1] is listed as “no pharmacological activity”.
In turn, `CO[C@H]1/C=C/O[C@@]2(C)Oc3c(C)c(O)c4c(O)c(c(/C=N/N5CCN(C)CC5)c(O)c4c3C2=O)NC(=O)/C(C)=C\C=C\[C@H](C)[C@H](O)[C@@H](C)[C@@H](O)[C@@H](C)[C@H](OC(C)=O)[C@@H]1C` [rifampicin] yielded an IC50 on SLCO1B1 of 2510 ± 1350 nM. In addition, at SLCO1B1 (setting [2]), the inhibition at 100 µM came to 91.2% and the inhibition at 500 µM was 95.4%.
As to `O=C(O)CCC(=O)O` [succinic acid], on SLCO1B1 (all tested concentrations (1–500 µM), uptake of 1 µM atorvastatin), the “effect on SLCO1B1 activity” value is “did not have a significant effect”. Also, at ABCB1, the “effect on Papp b-a, Papp a-b, and ER of fexofenadine transport” value is reported as “did not have a significant effect”.

Values taken from publication PMC10674565 (Pharmaceuticals, 2023).
